Measurements reported in ChEMBL document CHEMBL3351688, “Studies on the anticonvulsant activity of 4-alkyl-1,2,4-triazole-3-thiones and their effect on GABAergic system” (Eur J Med Chem, 2014).

Assays:
Rattus norvegicus = organism: Rattus norvegicus; assay: Displacement of [3H]flunitrazepam form benzodiazepine receptor in rat cerebral cortex assessed as specific radio-ligand binding level at 1 uM incubated for 20 mins by liquid scintillation counting method; format: tissue-based
Mus musculus [1] = assay: Anticonvulsant activity in Swiss mouse assessed as protection against seizures administered intraperitoneally 30 mins before test by maximal electroshock seizure test; format: functional; settings: ip
Mus musculus [2] = assay: Anticonvulsant activity in Swiss mouse assessed as protection against seizures administered intraperitoneally 120 mins before test by maximal electroshock seizure test; format: functional; settings: ip
[3] = Toxicity in Swiss mouse assessed as effect on motor performance administered intraperitoneally 15 mins before test by Chimney test; format: organism-based; settings: in vivo, ip
[4] = target: GABA-A receptor; anion channel (Homo sapiens) (UniProt P14867+P47870+P18507+P28472+P48169+Q99928+Q9UN88+P34903+O00591+O14764+Q8N1C3+P18505+P78334+P47869+P31644+Q16445); assay: Displacement of [3H]muscimol form GABAA receptor in rat cerebral cortex assessed as specific radio-ligand binding level at 1 uM incubated for 10 mins by liquid scintillation counting method; format: tissue-based; settings: target entry is the homologue from another species
[5] = Protective index, ratio of TD50 in ip Swiss mouse dosed intraperitoneally 15 mins before test by Chimney test to anticonvulsant ED50 in Swiss mouse dosed intraperitoneally 15 mins before test by MES test; format: ADME, organism-based; settings: in vivo, read-out: Ratio TD50/ED50
[6] = Protective index, ratio of TD50 in ip Swiss mouse dosed intraperitoneally 120 mins before test by Chimney test to anticonvulsant ED50 in Swiss mouse dosed intraperitoneally 120 mins before test by MES test; format: ADME, organism-based; settings: in vivo, read-out: Ratio TD50/ED50
Mus musculus [7] = assay: Anticonvulsant activity in Swiss mouse assessed as protection against seizures administered intraperitoneally 60 mins before test by maximal electroshock seizure test; format: functional; settings: ip
Mus musculus [8] = assay: Anticonvulsant activity in Swiss mouse assessed as protection against seizures administered intraperitoneally 15 mins before test by maximal electroshock seizure test; format: functional; settings: ip
[9] = Toxicity in Swiss mouse assessed as effect on motor performance administered intraperitoneally 30 mins before test by Chimney test; format: organism-based; settings: in vivo, ip
[10] = Protective index, ratio of TD50 in ip Swiss mouse dosed intraperitoneally 60 mins before test by Chimney test to anticonvulsant ED50 in Swiss mouse dosed intraperitoneally 60 mins before test by MES test; format: ADME, organism-based; settings: in vivo, read-out: Ratio TD50/ED50
Mus musculus [11] = assay: Anticonvulsant activity in Swiss mouse assessed as protection against seizures at 300 mg/kg, ip administered 120 mins before test by maximal electroshock seizure test; format: functional; settings: route intraperitoneal
Mus musculus [12] = assay: Anticonvulsant activity in Swiss mouse assessed as protection against seizures at 300 mg/kg, ip administered 60 mins before test by maximal electroshock seizure test; format: functional; settings: route intraperitoneal
Mus musculus [13] = assay: Anticonvulsant activity in Swiss mouse assessed as protection against seizures at 300 mg/kg, ip administered 30 mins before test by maximal electroshock seizure test; format: functional; settings: route intraperitoneal
[14] = Toxicity in Swiss mouse assessed as effect on motor performance administered intraperitoneally 120 mins before test by Chimney test; format: organism-based; settings: in vivo, ip
Mus musculus [15] = assay: Anticonvulsant activity in Swiss mouse assessed as protection against seizures at 300 mg/kg, ip administered 15 mins before test by maximal electroshock seizure test; format: functional; settings: route intraperitoneal
[16] = Toxicity in Swiss mouse assessed as effect on motor performance administered intraperitoneally 60 mins before test by Chimney test; format: organism-based; settings: in vivo, ip
[17] = Protective index, ratio of TD50 in ip Swiss mouse dosed intraperitoneally 30 mins before test by Chimney test to anticonvulsant ED50 in Swiss mouse dosed intraperitoneally 30 mins before test by MES test; format: ADME, organism-based; settings: in vivo, read-out: Ratio TD50/ED50

| Structure (SMILES) | Activity (Rattus norvegicus) [%] | ED50 (Mus musculus [1]) [mg/kg] | ED50 (Mus musculus [2]) [mg/kg] | TD50 at 0.25 h [3] [mg/kg] | Activity [4] [%] | selectivity ratio at 0.25 h [5] | selectivity ratio at 2 h [6] | ED50 (Mus musculus [7]) [mg/kg] | ED50 (Mus musculus [8]) [mg/kg] | TD50 at 0.5 h [9] [mg/kg] | selectivity ratio at 1 h [10] | Activity (Mus musculus [11]) [%] | Activity (Mus musculus [12]) [%] | Activity (Mus musculus [13]) [%] | TD50 at 2 h [14] [mg/kg] | Activity (Mus musculus [15]) [%] | TD50 at 1 h [16] [mg/kg] | selectivity ratio at 0.5 h [17] |
| --- | --- | --- | --- | --- | --- | --- | --- | --- | --- | --- | --- | --- | --- | --- | --- | --- | --- | --- |
| CCCCCn1c(Cc2cccc(Cl)c2)n[nH]c1=S | 14 | 62.5 | 84.2 | 371 | 10 | 7.6 | 4.1 | 68.4 | 48.5 | 322 | 4.8 | 100 | 100 | 100 | 348 | 100 | 329 | 5.2 |
| NCCCC(=O)O |  |  |  |  | 82 |  |  |  |  |  |  |  |  |  |  |  |  |  |
| CCCCCCCCn1c(Cc2cccc(Cl)c2)n[nH]c1=S | 0 | 166 | 224 | 391 | 8 | 2.4 | 2 | 153 | 162 | 486 | 2.8 | 82.5 | 100 | 100 | 441 | 100 | 436 | 2.9 |
| CCCCn1c(Cc2cccc(Cl)c2)n[nH]c1=S | 0 | 43.2 | 102 | 326 | 13 | 7.3 | 3.2 | 61.5 | 44.5 | 310 | 4.8 | 100 | 100 | 100 | 325 | 100 | 298 | 7.2 |
| CCn1c(-c2cccc(Cl)c2Cl)n[nH]c1=S | 5 |  |  |  | 19 |  |  |  |  |  |  | 0 | 0 | 0 |  | 0 |  |  |
| CCCCCCCCCCn1c(Cc2cccc(Cl)c2)n[nH]c1=S | 12 |  |  |  | 15 |  |  |  |  |  |  | 0 | 0 | 0 |  | 0 |  |  |
| CCCCCn1c(-c2cccc(Cl)c2Cl)n[nH]c1=S | 18 | 276 | 348 | 386 | 0 | 1.2 |  | 285 | 329 | 354 | 1.2 | 37.5 | 62.5 | 62.5 | 326 | 37.5 | 348 | 1.3 |
| CCCCCCn1c(Cc2cccc(Cl)c2)n[nH]c1=S | 1 | 74.5 | 97.9 | > 1000 | 3 | > 13.9 | 5.6 | 83.6 | 72.1 | > 1000 | 6.5 | 100 | 100 | 100 | 548 | 100 | 541 | > 13.4 |
| CCCCn1c(-c2cccc(Cl)c2Cl)n[nH]c1=S | 14 |  |  |  | 16 |  |  |  |  |  |  | 0 | 25 | 12.5 |  | 12.5 |  |  |
| CCCCCCCn1c(Cc2cccc(Cl)c2)n[nH]c1=S | 1 | 76.3 | 89.6 | 507 | 4 | 10.2 | 4.9 | 70.6 | 49.7 | 640 | 7.3 | 100 | 100 | 100 | 442 | 100 | 519 | 8.4 |
| CCCCCCn1c(-c2cccc(Cl)c2Cl)n[nH]c1=S | 10 |  |  |  | 2 |  |  |  |  |  |  | 12.5 | 25 | 12.5 |  | 12.5 |  |  |
| CN1C(=O)CN=C(c2ccccc2)c2cc(Cl)ccc21 | 83 |  |  |  |  |  |  |  |  |  |  |  |  |  |  |  |  |  |
| Cc1ccc(-c2nc3ccc(C)cn3c2CC(=O)N(C)C)cc1 | 73 |  |  |  |  |  |  |  |  |  |  |  |  |  |  |  |  |  |
| CCCCCCCn1c(-c2cccc(Cl)c2Cl)n[nH]c1=S | 8 |  |  |  | 3 |  |  |  |  |  |  | 12.5 | 25 | 25 |  | 25 |  |  |
| CCn1c(Cc2cccc(Cl)c2)n[nH]c1=S | 15 | 54.4 | 88.3 | 297 | 0 | 5.8 | 3.9 | 69.9 | 51.1 | 285 | 4.1 | 100 | 100 | 100 | 345 | 100 | 290 | 5.2 |
| CCCCCCCCCCCCn1c(Cc2cccc(Cl)c2)n[nH]c1=S | 12 |  |  |  | 0 |  |  |  |  |  |  | 0 | 0 | 0 |  | 0 |  |  |
| CCCCCCCCCn1c(Cc2cccc(Cl)c2)n[nH]c1=S | 0 | 117 | 200 | 476 | 0 | 2.5 | 2.3 | 86.8 | 193 | 493 | 5.7 | 82.5 | 100 | 100 | 465 | 82.5 | 493 | 4.2 |
